Results as given in ChEMBL document CHEMBL1157831, “Chemical epigenetics alters the secondary metabolite composition of guttate excreted by an atlantic-forest-soil-derived Penicillium citreonigrum” (2010).

Assays:
[1] = test system: Candida albicans; test: Antifungal activity against Candida albicans ATCC 12983 at 15 ug in 6 mm disk after 10 hrs by disc-diffusion assay; format: functional; settings: ATCC 12983, 10 h, read-out: IZ
[2] = test system: Candida parapsilosis; test: Antifungal activity against Candida parapsilosis ATCC 12969 at 15 ug in 6 mm disk after 10 hrs by disc-diffusion assay; format: functional; settings: Lodderomyces parapsilosis, ATCC 12969, 10 h; read-out: IZ
[3] = test system: Nakaseomyces glabratus; test: Antifungal activity against Candida glabrata NRRL Y-65 at 15 ug in 6 mm disk after 10 hrs by disc-diffusion assay; format: functional; settings: NRRL Y-65, 10 h, read-out: IZ
[4] = test system: Candida tropicalis; test: Antifungal activity against Candida tropicalis ATCC 12968 at 15 ug in 6 mm disk after 10 hrs by disc-diffusion assay; format: functional; settings: ATCC 12968, 10 h, read-out: IZ
[5] = test system: Pichia kudriavzevii; test: Antifungal activity against Candida krusei ATCC 27803 at 15 ug in 6 mm after 10 hrs by disc-diffusion assay; format: functional; settings: ATCC 27803, 10 h, read-out: IZ
[6] = test system: Streptococcus pyogenes; test: Antimicrobial activity against Streptococcus pyogenes at 100 ug/disk after 10 hrs by disc-diffusion assay; format: functional; settings: read-out: IZ
[7] = test system: Staphylococcus aureus; test: Antimicrobial activity against Staphylococcus aureus ATCC 700787 at 100 ug/disk after 10 hrs by disc-diffusion assay; format: functional; settings: ATCC 700787, 10 h, read-out: IZ
[8] = test system: Salmonella enterica; test: Antimicrobial activity against Salmonella typhimurium at 100 ug/disk after 10 hrs by disc-diffusion assay; format: functional, Salmonella enterica subsp. enterica serovar Typhimurium; settings: read-out: IZ
[9] = test system: Escherichia coli; test: Antimicrobial activity against Escherichia coli at 100 ug/disk after 10 hrs by disc-diffusion assay; format: functional; settings: read-out: IZ
[10] = test system: Staphylococcus epidermidis; test: Antimicrobial activity against Staphylococcus epidermidis ATCC 12228 at 30 ug in 6 mm disk after 10 hrs by disc-diffusion assay; format: functional; settings: ATCC 12228, 10 h, read-out: IZ
[11] = test system: Candida albicans; test: Antifungal activity against Candida albicans ATCC 12983 at 30 ug in 6 mm disk after 10 hrs by disc-diffusion assay; format: functional; settings: ATCC 12983, 10 h, read-out: IZ
[12] = test system: Candida parapsilosis; test: Antifungal activity against Candida parapsilosis ATCC 12969 at 30 ug in 6 mm disk after 10 hrs by disc-diffusion assay; format: functional; settings: Lodderomyces parapsilosis, ATCC 12969, 10 h; read-out: IZ
[13] = test system: Candida tropicalis; test: Antifungal activity against Candida tropicalis ATCC 12968 at 30 ug in 6 mm disk after 10 hrs by disc-diffusion assay; format: functional; settings: ATCC 12968, 10 h, read-out: IZ
[14] = test system: Pichia kudriavzevii; test: Antifungal activity against Candida krusei ATCC 27803 at 30 ug in 6 mm disk after 10 hrs by disc-diffusion assay; format: functional; settings: ATCC 27803, 10 h, read-out: IZ
[15] = test system: Staphylococcus aureus; test: Antimicrobial activity against Staphylococcus aureus ATCC 700787 at 15 ug in 6 mm disk after 10 hrs by disc-diffusion assay; format: functional, organism-based
[16] = test system: Staphylococcus epidermidis; test: Antimicrobial activity against Staphylococcus epidermidis ATCC 12228 at 15 ug in 6 mm disk after 10 hrs by disc-diffusion assay; format: functional, organism-based
[17] = test system: Burkholderia cepacia; test: Antimicrobial activity against Burkholderia cepacia ATCC 25608 at 15 ug in 6 mm disk after 10 hrs by disc-diffusion assay; format: functional, organism-based
[18] = test system: Klebsiella pneumoniae; test: Antimicrobial activity against Klebsiella pneumoniae ATCC 33495 at 15 ug in 6 mm disk after 10 hrs by disc-diffusion assay; format: functional, organism-based
[19] = test system: Acinetobacter baumannii; test: Antimicrobial activity against Acinetobacter baumannii ATCC 19606 at 15 ug in 6 mm disk after 10 hrs by disc-diffusion assay; format: functional, organism-based
[20] = test system: Pseudomonas aeruginosa; test: Antimicrobial activity against Pseudomonas aeruginosa ATCC 10145 at 15 ug in 6 mm disk after 10 hrs by disc-diffusion assay; format: functional, organism-based
[21] = test system: Escherichia coli; test: Antimicrobial activity against Escherichia coli ATCC 11775 at 15 ug in 6 mm disk after 10 hrs by disc-diffusion assay; format: functional, organism-based
[22] = test system: Enterobacter cloacae; test: Antimicrobial activity against Enterobacter cloacae ATCC 13047 at 15 ug in 6 mm disk after 10 hrs by disc-diffusion assay; format: functional, organism-based

CC(=O)N1CCN(c2ccc(OCC3COC(Cn4ccnc4)(c4ccc(Cl)cc4Cl)O3)cc2)CC1 (stereo not drawn) [KETOCONAZOLE]
zone of inhibition at 15 µg/disc [1]: 15 mm
zone of inhibition at 15 µg/disc [2]: 15 mm
zone of inhibition at 15 µg/disc [3]: 15 mm
zone of inhibition at 15 µg/disc [4]: 15 mm
zone of inhibition at 15 µg/disc [5]: 15 mm

C/C=C(/C(=O)O)N1C(=O)C=C(C)C1=O [PENCOLIDE]
zone of inhibition at 100 µg/disc [6]: 13 mm
zone of inhibition at 100 µg/disc [7]: 13 mm
zone of inhibition at 100 µg/disc [8]: 13 mm
zone of inhibition at 100 µg/disc [9]: 13 mm

CC[C@H](C)/C=C(C)/C=C/C1=CC2=C(Cl)C(=O)[C@](C)(OC(C)=O)C(=O)C2=CN1 [SCLEROTIORAMINE]
zone of inhibition at 30 µg/disc [10]: 8 mm
zone of inhibition at 30 µg/disc [11]: 8 mm
zone of inhibition at 30 µg/disc [12]: 7 mm
zone of inhibition at 30 µg/disc [13]: 8 mm
zone of inhibition at 30 µg/disc [14]: 8 mm

CC[C@H](C)/C=C(C)/C=C/C1=CC2=C(Cl)C(=O)[C@](C)(OC(C)=O)C(=O)C2=CO1 [SCLEROTIORIN]
zone of inhibition at 30 µg/disc [10]: 8 mm

GENTAMICIN
inhibition zone (IZ) [15]: 8 mm
inhibition zone (IZ) [16]: 8 mm
inhibition zone (IZ) [17]: 8 mm
inhibition zone (IZ) [18]: 8 mm
inhibition zone (IZ) [19]: 8 mm
inhibition zone (IZ) [20]: 8 mm
inhibition zone (IZ) [21]: 8 mm
inhibition zone (IZ) [22]: 8 mm
